The source of these data is US6900245B2, “Pharmaceutical composition comprising crystalline sibutramine methanesulfonate hemihydrate” (priority 2002, dated 2005).

Counter-ions that a name gives are not always drawn. Like-named read-outs stand apart in the source and are kept apart here.

A short description of data set [1]: Exposure of anhydrous enantiomer salts to room temperature, 75% relative humidity. It counts as physicochemical. From the text: Further, anhydrous (+)- and (−)-sibutramine methanesulfonate were each placed for 1 day at room temperature under 75% relative humidity.
Data set [2] is described as follows: Solubility in water at pH 5.2 (saturation, HPLC). As to conditions: for solubility: pH 5.2, thermodynamic from solid, pH5.2, saturation, HPLC, based on water-free sibutramine. It counts as physicochemical. From the text:
Sibutramine methanesulfonate hemihydrate of formula (I) and sibutramine hydrochloride monohydrate were each dissolved to the saturation point at pH 5.2, and then subjected to high performance liquid chromatography (HPLC) to determine the dissolved amount (based on water-free of sibutramine).

Data set [3] in a line: Stability on long term storage at 60° C. (residual rate). It counts as physicochemical. As for the experimental part:
The thermal stability of crystalline methanesulfonate hemihydrate of formula (I) during a long term storage was compared with that of the sibutramine hydrochloride monohydrate of formula (IV). The amounts of unchanged crystalline methanesulfonate hemihydrate of formula (I) and sibutramine hydrochloride monohydrate of formula (IV) at 60° C. after 1, 2, 3 and 6 months are shown in Table 3.

The nature of data set [4]: Non-hygroscopic test: water content by Karl Fischer after storage at 40° C., 75% or 10% relative humidity. It counts as physicochemical. The conditions noted are these: for water-content: 40° C. As for the experimental part:
Crystalline sibutramine methanesulfonate hemihydrate of formula (I), sibutramine hydrochloride monohydrate (IV) and anhydrous sibutramine methanesulfonate were each exposed to a high temperature/humidity condition of 40° C. and 75% relative humidity for 1, 2, and 5 days, and the water content thereof was measured by employing Kaal-Fisher moisture analyzer.
A similar series of experiments were conducted at 40° C. and 10% relative humidity, in order to examine whether the respective compounds are stable under a relatively dry condition.

The test system of data set [5] is overweight Zuker rats (fa/fa). The data set can be described thus: Weight loss effect, 21 days, high-fat food. It counts as in vivo, rat. The conditions noted are these: 3 mg/kg everyday for 21 days. On the procedure:
(§1) 16 each of overweight Zuker rats (fa/fa) and thin Zuker rats (Fa/Fa) were divided into drug-administrating and control groups (8 rats per group), and the weight of each rat was measured prior to the test. A 3 mg/kg dose of crystalline sibutramine methanesulfonate hemihydrate was administrated to each rat of the drug-administrating groups, whiling the vehicle was administrated to those of the control groups, everyday for 21 days. During the period, rats were allowed free access to high-fat food, and the average weights of the drug-administrating and control groups were determined in order to calculate the weight gain and loss.

The test system of a further data set is thin Zuker rats (Fa/Fa). The experiment in a line: Weight loss effect, 21 days, high-fat food. It counts as in vivo, rat. The conditions noted are these: 3 mg/kg everyday for 21 days. As for the experimental part: as §1
For data set [6] the following is noted: background statement on the prior art; cited from earlier work.
For data set [7] the following is noted: pH 5.2; Merck Index, 13th Ed, p1522; cited from earlier work.
The mark [8] stands for this setting: 10% relative humidity, storage 1 day.
Where [9] appears, read: 10% relative humidity, storage 2 days.
Where [10] appears, read: 10% relative humidity, storage 5 days.
The mark [11] stands for this setting: 75% relative humidity, storage 1 day.
The mark [12] stands for this setting: 75% relative humidity, storage 2 days.
Setting [13] is: 75% relative humidity, storage 5 days.

`CC(C)CC(N(C)C)C1(c2ccc(Cl)cc2)CCC1.CS(=O)(=O)O` (single isomer, unassigned; (+)) [(+)-sibutramine methanesulfonate]: the “state after 1 day” value in data set [1] was “transparent liquid”.
Regarding `CC(C)CC(N(C)C)C1(c2ccc(Cl)cc2)CCC1` (racemic) [sibutramine methanesulfonate hemihydrate], the “solubility in water compared with sibutramine hydrochloride monohydrate of formula (IV)” value in data set [2] (pH 5.2) is “markedly higher solubility in water”. Moreover, the solubility in data set [2] worked out at 2500 mg/mL. Besides, in data set [3], the “Residual rate after 1 month” value came out at 1.001, the “Residual rate after 2 months” value worked out at 0.999, the “Residual rate after 3 months” value is reported as 0.999 and the “Residual rate after 6 months” value was determined as 1.000. For the same compound, in data set [3], the “Initial (unchanged amount)” value is recorded as 1.000. The “stability compared with sibutramine hydrochloride monohydrate” value in data set [3] (up to 6 months) is recorded as “as stable as sibutramine hydrochloride monohydrate”. Moreover, the water-content in data set [4] (setting [8]) came out at 2.27 % by weight. This compound also displayed a water-content in data set [4] (setting [9]) of 2.25 % by weight. Further, the water-content in data set [4] (setting [10]) is on record as 2.26 % by weight. Also, the water-content in data set [4] (setting [11]) came to 2.27 % by weight. The compound also had a water-content in data set [4] (setting [12]) of 2.30 % by weight. The compound further had a water-content in data set [4] (setting [13]) of 2.30 % by weight. In addition, the “release of the water of crystallization” value in data set [4] (dry condition (40° C., 10% RH)) is “does not release the water of crystallization”. Besides, in data set [4] (high humidity condition (40° C., 75% RH)), the hygroscopicity entry is recorded as “non-hygroscopic”. In data set [5] (Zuker rats, sentence covers overweight and thin rats), the “weight loss effect as compared with the control group” value was “remarkable weight loss effect”. Also, in data set [5] (overweight Zuker rats), the “The average weight after test (B)” value was found to be 455.6 g, the “Weight gain (B − A)” value is recorded as 123.4 g and the “Weight loss effect ((Gain in weight of the control group) − (Gain in weight of the drug-administrating group))” value is 29.6 g. Further, in the data set on thin Zuker rats (Fa/Fa), the “The average weight after test (B)” value is 303.4 g, the “Weight gain (B − A)” value is 58.4 g and the “Weight loss effect ((Gain in weight of the control group) − (Gain in weight of the drug-administrating group))” value is 20.4 g.
As for `CC(C)CC(N(C)C)C1(c2ccc(Cl)cc2)CCC1.CS(=O)(=O)O` (single isomer, unassigned; (-)) [(−)-sibutramine methanesulfonate], the “state after 1 day” value in data set [1] is recorded as “transparent liquid”.
With `CC(C)CC(N(C)C)C1(c2ccc(Cl)cc2)CCC1.CS(=O)(=O)O` (stereo not shown) [anhydrous sibutramine methanesulfonate], the water-content in data set [4] (setting [8]) turned out to be 0.60 % by weight; in data set [4] (setting [9]) it was 0.71 % by weight; in data set [4] (setting [10]) it was 0.70 % by weight; in data set [4] (setting [11]), 0.60 % by weight; in data set [4] (setting [12]) it was 2.20 % by weight; in data set [4] (setting [13]), 2.25 % by weight.
`CC(C)CC(N(C)C)C1(c2ccc(Cl)cc2)CCC1.Cl` (stereo not shown) [anhydrous sibutramine hydrochloride]: the hygroscopicity entry in data set [6] was “highly hygroscopic”.
`CC(C)CC(N(C)C)C1(c2ccc(Cl)cc2)CCC1` (stereo not shown) [sibutramine hydrochloride monohydrate, reference compound]: the solubility in data set [2] came out at 2.8 mg/mL. In addition, the “Residual rate after 1 month” value in data set [3] stood at 1.000. In data set [3], the “Residual rate after 2 months” value stood at 0.999. In data set [3], the “Residual rate after 3 months” value is recorded as 0.999. Besides, in data set [3], the “Residual rate after 6 months” value is reported as 0.992. Besides, the “Initial (unchanged amount)” value in data set [3] amounted to 1.000. For the same compound, the water-content in data set [4] (setting [8]) is 5.40 % by weight; in data set [4] (setting [9]), 5.36 % by weight; in data set [4] (setting [10]), 5.36 % by weight; in data set [4] (setting [11]) it was 5.40 % by weight; in data set [4] (setting [12]), 5.45 % by weight; in data set [4] (setting [13]), 5.48 % by weight. For the same compound, the hygroscopicity result in data set [6] is “non-hygroscopic”. Further, the solubility in water in data set [7] is 2.9 mg/mL.

A word on the solubility: it is the concentration that dissolves in the medium under given conditions.
